The values below come from patent publication US20250064799A1, “ORAL FORMULATIONS OF LEVOSIMENDAN FOR TREATING PULMONARY HYPERTENSION WITH HEART FAILURE WITH PRESERVED EJECTION FRACTION” (Tenax Therapeutics, Inc., priority 2021, published 2025).

Series [1] concerns patients with PH-HFpEF. As to the kind of experiment: Resting heart rate and systolic arterial blood pressure, I.V. to oral levosimendan transition study. It is filed as in vivo, human. As to the method:
Once that dose is determined, the study is identical with respect to the protocol. Since the I.V. formulation is weight based, and bypasses issues of bioavailability that may be affected by drug absorption, a dose escalation strategy is being adopted, guided by the individual patient response and any adverse events that may occur. Thus, the measurement of a six-minute walk test and patient questionnaire before and after the transition was to ensure that the patient continues to benefit. In addition, the monitoring of the patients' blood pressure and heart rate each day was to ensure that the oral dose remains safe.
(§1) The following considerations justified amending the TNX-LVO-05 study protocol: • 1. The amended TNX-LVO-05 protocol included the same patients enrolled in the original study. This was not a new study of the patients currently enrolled. This was open label, with no blinding of patients or physicians, and no control group. • 2. The scope and purpose of the study was unchanged, with the exception that it offered the further extension of treatment allowed by the transition to oral therapy (See item #4). • 3. The amendment clearly delineated a stepwise and thoughtful titration of patients from their intravenous to oral levosimendan to ensure the safe and effective transition of their levosimendan regimen. • a. Patients were started on 1 mg daily, representing a dose generally less than half their total weekly weight-based dose regimen. • b. Patients were titrated based on tolerance to the daily levosimendan paying attention to their symptoms of PH-HFpEF, and special attention to specific adverse events of interest, heart rate and blood pressure. A daily diary captured patient vitals and symptoms to aid their physician in titrating patients at two-week intervals. • c. Patient response also was evaluated by clinical measures to provide the physician with additional information on the patient's response. • d. While most patients were expected to receive 2-3 mg daily at the conclusion of the transition study, the dose escalation strategy was included to allow all patients to realize the same benefit as they did from the I.V. formulation. • e. To document the sustained efficacy of the oral formulation in these patients, patients had to undergo a six-minute walk test and patient questionnaire prior to and at the end of the transition study. • 4. The transition to oral levosimendan allowed for extension of the study from its initial two years to an additional three years. This offers these PH-HFpEF patients, with no other treatments available, to continue on a drug that they have responded to. • 5. The amendment required patients to sign a revised informed consent to ensure patients are completely informed concerning the transition amendment. Patients that preferred to continue with their weekly 24-hour I.V. regimen were allowed to continue through the initial two-year period of the study and then will be withdrawn.
(§2) Methods: Patients with PH-HFpEF who were in the open label extension study of the HELP Trial for more than 18 months volunteered to enroll in this transition protocol. Patients were initiated with 1 mg/day of oral levosimendan 5-7 days after the last IV levosimendan infusion. The oral dose was increased every 2 weeks by 1 mg/day to a maximum of 4 mg/day over an 8 week period. The highest daily dose was determined by the investigator based on clinical assessments of symptoms and side effects. The primary safety endpoints were change in resting heart rate and blood pressure from baseline to final study visit and all other adverse events. Secondary efficacy endpoints included change in six-minute walk distance (6MWD), serum brain natriuretic peptide (BNP) or NT-proBNP levels, and quality of life as assessed by Kansas City Cardiomyopathy Questionnaire clinical summary score (KCCQ-CS) and overall summary score (KCCQ-OS) from baseline to final study visit. […]

The subject of series [2] is patients with PH-HFpEF. As to the kind of experiment: Adverse events, tolerability and final dose, I.V. to oral levosimendan transition study. In kind it is in vivo, human. The conditions noted are these: for SAEs attributed/related to study drug: 6-8 week transition.
Text: as §1
as §2, with “visit. All comparisons were the baseline and at week 6-8 measurements at the highest daily dose of levosimendan.” for “visit.”

The conditions of series [3]: in vivo; cited from earlier work.
Series [4] relates to patients with PH-HFpEF. As to the kind of experiment: HELP Study (TNX-LVO-04), weekly I.V. levosimendan for 6 weeks. In kind it is in vivo, human. Also on record: HELP (WK 6) 6MWT: unit not given here. An excerpt: The initial HELP Study is described in PCT International Application Publication No. WO 2021/126884 and Burkhoff, et al. (2021) “Levosimendan improves hemodynamics and exercise tolerance in PH-HFpEF: results of the randomized placebo-controlled HELP trial,” the entire contents of each of which are incorporated by reference. […] Among the goals of the extension study was to determine the dose of oral levosimendan that could maintain the efficacy of the weekly I.V. infusions of levosimendan.
PH-HFpEF is a progressive, fatal disease for which there are no approved therapies. All patients that the 6-week parent TNX-LVO-04 study (also referred to as the initial Help Study) underwent assessments of safety and efficacy in a double-blind randomized protocol. […] For these reasons, all participating patients were allowed to enter an open-label extension study (also referred to as TNX-LVO-05), to provide ongoing levosimendan therapy for two additional years. […]

[5] abbreviates: baseline to final study visit (week 6-8), oral levosimendan 3-4 mg/day.
The mark [6] stands for this setting: individual patients, Active arm of HELP Study, weekly I.V. levosimendan, week 6.

Several values for one entry are separate records, joined by “and”; a condition that tells them apart may be missing. Identical values can stand only once. Entries after “also recorded” stand apart in the source; their conditions may differ.

For the compound `C[C@@H]1CC(=O)NN=C1c1ccc(NN=C(C#N)C#N)cc1` [levosimendan], in the series on patients with PH-HFpEF [1] (setting [5]), the “mean change in resting heart rate” value is reported as 4.9 (SD±7.5) beats/min and the “mean change in systolic arterial blood pressure” value is given as 4.1 (SD±12.6) mm Hg. For the same compound, in the series on patients with PH-HFpEF [1] (n=18), the “Heart Rate Change from Baseline to Week 6 Oral, Mean” value is 6.9; the “Heart Rate Change from Baseline to Week 6 Oral, Median” value is given as 5.5; the “Heart Rate Change from Baseline to Week 6 Oral, Minimum” value was −9; the “SBP Change from baseline to Week 6 - Oral, Maximum” value is on record as 34. In addition, in the series with patients with PH-HFpEF [1] (n=18), the “SBP Change from baseline to Week 6 - Oral, Mean” value is reported as 4.1; the “SBP Change from baseline to Week 6 - Oral, Median” value was 1.5; the “SBP Change from baseline to Week 6 - Oral, Minimum” value is −15. Moreover, the “tolerability of transition to oral levosimendan” value in the series with patients with PH-HFpEF [2] (6-8-week period, after >18 months of IV levosimendan) is “well tolerated without safety concerns”. Further, in the series with patients with PH-HFpEF [2] (18 patients, oral levosimendan), the other adverse events entry was “No other adverse events”. For the same compound, in the series with patients with PH-HFpEF [2] (18 patients, oral levosimendan, listed as study drug), the “serious adverse event not related to study drug” value is given as “One patient experienced a serious adverse event (SAE) unrelated to study drug; also recorded: One patient had a serious adverse event not related to the study drug”. Moreover, the “SAEs attributed/related to study drug” value in the series on patients with PH-HFpEF [2] (oral levosimendan) is “no SAEs related”. Also, in the series with patients with PH-HFpEF [2] (oral levosimendan, listed as study drug), the “SAEs attributed/related to study drug” value is given as “no SAEs were reported”. Also, the parent half-life result in series [3] is recorded as “approximately 1 hour”. In addition, in the series on patients with PH-HFpEF [4] (setting [6]), the “HELP (WK 6) 6MWT” value was 311 and 397 and 270 and 218 and 232 and 401 and 196 and 482; the “HELP (WK 6) HR” value was 72 and 63 (2×) and 86 and 71 and 67 and 75 (2×). Also, in the series on patients with PH-HFpEF [4] (levosimendan alone, PH-HFpEF patients), the “average improvement of 6-minute walk distance” value was “approximately 29 m”. Besides, in the series with patients with PH-HFpEF [4] (particularly upon chronic administration), the “effect on pulmonary vascular resistance” value is “did not decrease”.
